Test results reported in PubChem BioAssay AID330 (DTP/NCI, 2004).
Values joined by “and” are separate entries in the source; they are usually repeats but may differ in a detail not shown here. Equal values may be shown once. Toxic doses and inconclusive results are not listed. How the source made its calls: active means survival T/C of 150% or more; inactive means T/C below 125% in these data.

System: P388 leukemia ip, CD2F1 mice, survival T/C
Test: NCI In Vivo Anticancer Drug Screen. Data for tumor model P388 Leukemia (intraperitoneal) in CD2F1 (CDF1) mice
Conditions: endpoint: median survival time, higher = longer survival
Procedure, shortened: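 Mice carrying the transplanted tumor received test compound or vehicle. Survival was recorded in each group, and the value is the treated-group measurement divided by that of the vehicle-treated control group.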

[1] = dose: 25.0 mg/kg/injection, schedule: Q01DX009 (ip), vehicle: Klucel (hydroxypropylcellulose) (HPC)
[2] = dose: 50.0 mg/kg/injection, schedule: Q01DX009 (ip), vehicle: Klucel (hydroxypropylcellulose) (HPC)
[3] = dose: 100.0 mg/kg/injection, schedule: Q01DX009 (ip), vehicle: Klucel (hydroxypropylcellulose) (HPC)
[4] = dose: 50.0 mg/kg/injection, schedule: Q01DX009 (ip), vehicle: saline
[5] = dose: 100.0 mg/kg/injection, schedule: Q01DX009 (ip), vehicle: saline
[6] = dose: 200.0 mg/kg/injection, schedule: Q01DX009 (ip), vehicle: saline
[7] = dose: 50.0 mg/kg/injection, schedule: Q01DX009 (ip), vehicle: saline with Tween-80
[8] = dose: 100.0 mg/kg/injection, schedule: Q01DX009 (ip), vehicle: saline with Tween-80
[9] = dose: 200.0 mg/kg/injection, schedule: Q01DX009 (ip), vehicle: saline with Tween-80
[10] = dose: 25.0 mg/kg/injection, schedule: Q01DX005 (ip), vehicle: Klucel (hydroxypropylcellulose) (HPC)
[11] = dose: 50.0 mg/kg/injection, schedule: Q01DX005 (ip), vehicle: Klucel (hydroxypropylcellulose) (HPC)
[12] = dose: 100.0 mg/kg/injection, schedule: Q01DX005 (ip), vehicle: Klucel (hydroxypropylcellulose) (HPC)
[13] = dose: 200.0 mg/kg/injection, schedule: Q01DX005 (ip), vehicle: Klucel (hydroxypropylcellulose) (HPC)
[14] = dose: 400.0 mg/kg/injection, schedule: Q01DX009 (ip), vehicle: saline with Tween-80
[15] = dose: 50.0 mg/kg/injection, schedule: Q04DX003 (ip), vehicle: saline with Tween-80
[16] = dose: 100.0 mg/kg/injection, schedule: Q04DX003 (ip), vehicle: saline with Tween-80
[17] = dose: 200.0 mg/kg/injection, schedule: Q04DX003 (ip), vehicle: saline with Tween-80

Measured: T/C

Cc1ccc(Cl)cc1NC(=O)Nc1nccs1
inactive: [1] 93 % of control | [2] 92 % of control | [3] 109 % of control

C/C=C(\C)C(=O)OC1CC(OC(=O)/C(C)=C/C)C2(C)C3C(=O)C=C(C)C2C3C1(C)C (stereo not drawn)
inactive: dose: 12.5 mg/kg/injection, schedule: Q01DX009 (ip), vehicle: Klucel (hydroxypropylcellulose) (HPC) 90 % of control | [1] 96 % of control | [2] 96 % of control | [3] 100 % of control

NS(=O)(=O)c1cccnc1Nc1ccc([N+](=O)[O-])cc1
inactive: [4] 105 % of control | [5] 101 % of control | [6] 93 % of control

CN(C(=S=O)c1ccc(Cl)cc1)c1ccccc1
inactive: dose: 25.0 mg/kg/injection, schedule: Q01DX009 (ip), vehicle: suspension in saline 101 % of control | dose: 50.0 mg/kg/injection, schedule: Q01DX009 (ip), vehicle: suspension in saline 95 % of control | [5] 90 % of control | dose: 100.0 mg/kg/injection, schedule: Q01DX009 (ip), vehicle: suspension in saline 105 % of control and 97 % of control | [6] 94 % of control

Cc1cccc(C(=O)CC[N+](C)(C)C)c1
inactive: dose: 3.13 mg/kg/injection, schedule: Q01DX009 (ip), vehicle: saline 111 % of control | dose: 6.25 mg/kg/injection, schedule: Q01DX009 (ip), vehicle: saline 109 % of control | dose: 12.5 mg/kg/injection, schedule: Q01DX009 (ip), vehicle: saline 94 % of control

CN(C=O)S(C)(=O)=O
inactive: [7] 100 % of control | [8] 100 % of control | [9] 100 % of control

CCN1CCc2nc(N)oc2CC1
inactive: [4] 107 % of control | [5] 110 % of control | [6] 115 % of control

CC(=O)/C=C/N1CCOCC1
inactive: [4] 119 % of control | [5] 98 % of control | [6] 103 % of control

Cc1cc(CC(O)(c2ccccc2)c2ccccc2)nc2[nH]c(=O)ccc12
inactive: [10] 97 % of control | [11] 103 % of control | [12] 98 % of control | [13] 96 % of control

CCC(=O)Nc1ccc(Br)cc1
inactive: [7] 102 % of control | [8] 94 % of control | [9] 96 % of control | [14] 96 % of control

CC1=NN(C(=O)c2ccccn2)C(=O)C1N=Nc1ccc(S(=O)(=O)Nc2ncccn2)cc1 (stereo not drawn)
inactive: dose: 60.0 mg/kg/injection, schedule: Q01DX005 (ip), vehicle: saline with Tween-80 102 % of control | dose: 120.0 mg/kg/injection, schedule: Q01DX005 (ip), vehicle: saline with Tween-80 105 % of control | dose: 240.0 mg/kg/injection, schedule: Q01DX005 (ip), vehicle: saline with Tween-80 94 % of control

CCN(CC)c1cc(C)c(Cc2c(OC)ccc3ccccc23)cc1C
inactive: [11] 92 % of control | [12] 92 % of control | [13] 99 % of control

O=C1C=CCCCC1
inactive: dose: 12.5 mg/kg/injection, schedule: Q01DX009 (ip), vehicle: saline + Tween-80 + alcohol 102 % of control | dose: 25.0 mg/kg/injection, schedule: Q01DX009 (ip), vehicle: saline + Tween-80 + alcohol 98 % of control | dose: 44.0 mg/kg/injection, schedule: Q01DX009 (ip), vehicle: saline with Tween-80 109 % of control | dose: 50.0 mg/kg/injection, schedule: Q01DX009 (ip), vehicle: saline + Tween-80 + alcohol 100 % of control | dose: 66.0 mg/kg/injection, schedule: Q01DX009 (ip), vehicle: saline with Tween-80 109 % of control

COCCOC(=O)C1=C(O)c2ccccc2S(=O)(=O)N1C
inactive: dose: 60.0 mg/kg/injection, schedule: Q01DX005 (ip), vehicle: Klucel (hydroxypropylcellulose) (HPC) 106 % of control | dose: 120.0 mg/kg/injection, schedule: Q01DX005 (ip), vehicle: Klucel (hydroxypropylcellulose) (HPC) 109 % of control | dose: 240.0 mg/kg/injection, schedule: Q01DX005 (ip), vehicle: Klucel (hydroxypropylcellulose) (HPC) 120 % of control

CC1(C)C(=S)C(C)(C)C1=S
inactive: [11] 104 % of control | [12] 104 % of control | [13] 108 % of control

c1ccc(C2(c3ccccc3)CN3CCSC3=N2)cc1
inactive: dose: 12.5 mg/kg/injection, schedule: Q04DX003 (ip), vehicle: saline with Tween-80 104 % of control | dose: 25.0 mg/kg/injection, schedule: Q04DX003 (ip), vehicle: saline with Tween-80 103 % of control | [15] 99 % of control | [16] 108 % of control | [17] 103 % of control

CN(C)CS/C(=N\C(O)C(Cl)(Cl)Cl)NC(O)C(Cl)(Cl)Cl (stereo not drawn)
inactive: [11] 97 % of control | [12] 99 % of control | [13] 99 % of control

COc1ccc(NC(=O)C2C(=O)C(=O)N(c3ccc(OC)cc3OC)C2=O)c(OC)c1 (stereo not drawn)
inactive: [2] 98 % of control | [3] 100 % of control | dose: 200.0 mg/kg/injection, schedule: Q01DX009 (ip), vehicle: Klucel (hydroxypropylcellulose) (HPC) 98 % of control

CCCCCCCCCCCCN(C)S(=O)(=O)c1ccc(Cl)c(N)c1
inactive: [15] 95 % of control | [16] 100 % of control | [17] 95 % of control

O=Nc1[nH]c(NO)c2ccccc12
inactive: [7] 91 % of control | [8] 87 % of control | [9] 87 % of control | [14] 90 % of control

OCC(O)C(O)C(O)Cc1ccc(O)cc1O (stereo not drawn)
inactive: [4] 98 % of control | [5] 106 % of control | [6] 104 % of control

CC(=O)OCCSSCCOC(C)=O
inactive: [7] 107 % of control | [8] 113 % of control

CSc1nc(C)c(Br)c(N2CC2)n1
inactive: dose: 3.12 mg/kg/injection, schedule: Q01DX005 (ip), vehicle: Klucel (hydroxypropylcellulose) (HPC) 89 % of control | dose: 6.25 mg/kg/injection, schedule: Q01DX005 (ip), vehicle: Klucel (hydroxypropylcellulose) (HPC) 110 % of control and 94 % of control | dose: 12.5 mg/kg/injection, schedule: Q01DX005 (ip), vehicle: Klucel (hydroxypropylcellulose) (HPC) 99 % of control and 110 % of control | [10] 120 % of control and 89 % of control and 97 % of control | [11] 101 % of control and 102 % of control | [12] 105 % of control

COc1cc(CBr)ccc1OCc1ccccc1
inactive: dose: 12.5 mg/kg/injection, schedule: Q01DX009 (ip), vehicle: distilled water + Tween-80 111 % of control | dose: 25.0 mg/kg/injection, schedule: Q01DX009 (ip), vehicle: distilled water + Tween-80 101 % of control | dose: 50.0 mg/kg/injection, schedule: Q01DX009 (ip), vehicle: distilled water + Tween-80 108 % of control | dose: 100.0 mg/kg/injection, schedule: Q01DX009 (ip), vehicle: distilled water + Tween-80 108 % of control

CC(=O)C(C(=O)Nc1cccc2ccccc12)C(C)=NCC(C)N=C(C)C(C(C)=O)C(=O)Nc1cccc2ccccc12.[Cu] (stereo not drawn)
inactive: dose: 12.5 mg/kg/injection, schedule: Q01DX005 (ip), vehicle: saline + Tween-80 + alcohol 110 % of control | dose: 25.0 mg/kg/injection, schedule: Q01DX005 (ip), vehicle: saline + Tween-80 + alcohol 96 % of control | dose: 50.0 mg/kg/injection, schedule: Q01DX005 (ip), vehicle: saline + Tween-80 + alcohol 105 % of control
